Data reported in EP1472347B1, “IMPROVED PROTEIN EXPRESSION IN BACILLUS SUBTILIS” (Danisco US Inc., priority 2002, dated 2003).
No end group written: not given here.

Test system: aprE transcription
Assay: β-galactosidase assay of the aprE-lacZ transcriptional fusion with synthetic Phr pentapeptides added to the medium
Format: cell-based, B. subtilis AL
Conditions: for aprE transcription (β-galactosidase activity, relative to wild-type): 10 µM pentapeptide in TY medium at 37°C, 4 hours after transition point between exponential and post-exponential growth, strain grown without Phr peptides (WT) set to 100%
Procedure: Figure 1 provides a bar graph depicting the different effects of Phr pentapeptides on aprE transcription. The transcription of the aprE-IacZ gene fusion in B. subtilis AL grown in TY medium at 37°C in the presence of 10 µM of one of the following pentapeptides (see Table II): PhrA (A), PhrC, (C), PhrE (E), PhrF (F), PhrG (G), PhrI (I) or PhrK (K), or in the absence of pentapeptides (-), was measured 4 hours after the transition point between the exponential and post-exponential growth phases. β-galactosidase activities were determined in Units per OD600 (% of WT; aprE-lacZ transcription level of the strain grown in the absence of Phr peptides [WT] is set to 100%).
Figure 2 provides a graph showing that PhrE stimulates aprE transcription. […] Zero time (T0) indicates the transition point between the exponential and post-exponential growth phases.
Overnight cultures were diluted to an optical density (OD600) of 0.1 in fresh TY medium, supplemented with Phr60 pentapeptide, as appropriate. Samples for OD600 readings and β-galactosidase activity determinations were taken at hourly intervals. The assay and the calculation of β-galactosidase activity (expressed as units per OD600) of the samples was performed as known In the art (See, Miller, Experiments In Molecular Genetics, Cold Spring Harbor Laboratory Press, NY, [1982]).
To analyze whether chromosomally-encoded Rap-Phr systems might be Involved in protease production, B. subtilis AL (bearing an aprE-lacZ transcriptional fusion), was grown in TY medium supplemented with synthetic PhrA, -C, -E, -F, -G, -H, -I, or -K pentapeptides (Table II).
In this Example, experiments conducted to further assess the effects of Rap-Phr systems on the transcription of aprE are described. The RapE-PhrE system was used as a model for two reasons. […] To determine the effect of PhrE on aprE transcription during growth, synthetic PhrE was added at two concentrations (1 and 10 µg/ml) to the medium of B. subtilis AL. […] It was also noted that in the latter case, aprE transcription seemed to be improved during all growth phases.

Substance	aprE transcription (β-galactosidase activity, relative to wild-type)	effect on aprE transcription compared with all Phr pentapeptides tested (Figure 1, 10 µM pentapeptide, post-exponential growth phase)	aprE transcription during growth (time course) (synthetic PhrE added at two concentrations (1 and 10 µg/ml) to the medium of B. subtilis AL, TY medium, 37°C, Figure 2)
ERGMT [PhrC]	~60 % relative to wild-type	–	–
QRGMI [PhrF]	~135 % relative to wild-type	–	–
EKMIG [PhrG]	100-120 % relative to wild-type	–	–
SRNVT [PhrE]	~135 % relative to wild-type	strongest positive effect on aprE transcription	improved by the addition of PhrE only during the post-exponential growth phase in a PhrE concentration-dependent manner
ARNQT [PhrA]	100-120 % relative to wild-type	–	–
DRVGA [PhrI]	100-120 % relative to wild-type	–	–
ERPVG [PhrK]	100-120 % relative to wild-type	–	–
